# Measurements as given in US6524585B1, “Indolicidin analogs and methods of using same” (The Regents of the University of California, priority 1998, dated 2003).
# “Also recorded” adds a separate entry of the source. Non-standard residues stand in square brackets, D forms with d. No end group written: not given here. hSer = N[C@@H](CCO)C(=O)O
# System: Staphylococccus aureus
# Assay: agar diffusion assay (zone of inhibition)
# Type: cell-based
# Conditions: S. aureus
# Method: (§1) The antimicrobial activity of the indolicidin analogs was determined using microbicidal or microbial inhibition assays. The indolicidin analogs initially were characterized using a microbial inhibition method, including a modified plate diffusion assay (Hultmark et al., EMBO J. 2:571-573 (1983); Lehrer et al., J. Immunol. Meth. 137:167-173 (1991), each of which is incorporated herein by reference).
# (§2) Nutrient-containing agar (or agarose) plates were seeded with a selected target microorganism and peptide samples (5-10 μl) were placed into small wells formed in the solid medium. Following an initial incubation interval of 1 to 4 hr, the well-containing layer was overlayed with enriched (2× normal) solid medium in order to support microbial growth outside the perimeter of inhibition. After overnight incubation at 30° C. to 37° C., the antimicrobial activity was quantitated by measuring the clear zones around each well (zone of inhibition).
row,Substance,"antimicrobial activity (growth inhibition, zone of inhibition)"
1,[H2N-]Ile-Leu-Pro-Trp-Lys-Trp-Pro-Trp-Trp-Pro-Trp-Arg-Arg-Hse (ILPWKWPWWPWRRX; C-terminal homoserine; MOD_RES (14) Xaa is homoserine (Hse).) [Indol(1-13)-Hse],antimicrobial activity equivalent to that of synthesized Indol 1-13

# System: microorganisms
# Assay: antimicrobial activity, microbicidal or microbial inhibition assays (overall statements)
# Type: cell-based
# Conditions: overall statement, microorganism not specified
# Method: as §1, §2
# Microbicidal activity was measured by first incubating the target organism with an indolicidin analog in an aqueous suspension, then plating the suspension to quantitate surviving microorganisms. Cultures were grown to mid log phase in an appropriate medium, harvested, washed, and resuspended to 1-2×10^7 colony forming units (CFU) per ml. To conserve peptide, the incubation volume usually was 0.05 ml, with the final cell concentration being 1-2×10^6CFU/ml. Peptide stock solutions, usually made up in 0.01% acetic acid, were diluted in the incubation buffer to a final concentration of 1 μg/ml to 100 μg/ml, and the incubation was initiated by addition of an appropriate volume of the bacterial or fungal stock suspension to the prewarmed (37° C.) peptide-buffer mixture. At timed intervals, 50 μl or 100 μl samples were removed and diluted serially, then plated on nutrient-containing agar plates. Killing activity was quantitated by determining the reduction in CFU relative to appropriate control incubations.
row,Substance,antimicrobial activity
1,Pro-Trp-Lys-Trp-Pro-Trp-Trp-Pro-Trp-Arg-Arg-NH2 (PWKWPWWPWRR-NH2) [Indol 3-13],broad spectrum antimicrobial activity; also recorded: exhibits antimicrobial activity
2,Leu-Pro-Trp-Lys-Trp-Pro-Trp-Trp-Pro-Trp-Arg-Arg-NH2 (LPWKWPWWPWRR-NH2) [Indol 2-13],broad spectrum antimicrobial activity; also recorded: exhibits antimicrobial activity
3,Leu-Pro-Phe-Lys-Phe-Pro-Phe-Phe-Pro-Phe-Arg-Arg-NH2 (LPFKFPFFPFRR-NH2) [Indol 2-13/F],exhibits antimicrobial activity
4,"Indol 1-13/F-Hse: Indol 1-13/F peptide with a carboxy terminal homoserine, produced by cyanogen bromide cleavage (ILPFKFPFFPFRR[hSer])",have antimicrobial activity
5,Lys-Trp-Pro-Trp-Trp-Pro-Trp-Arg-Arg-NH2 (KWPWWPWRR-NH2) [Indol 5-13],broad spectrum antimicrobial activity; also recorded: exhibits antimicrobial activity
6,Trp-Lys-Trp-Pro-Trp-Trp-Pro-Trp-Arg-Arg-NH2 (WKWPWWPWRR-NH2) [Indol 4-13],broad spectrum antimicrobial activity; also recorded: exhibits antimicrobial activity
7,[H2N-]Ile-Leu-Pro-Trp-Lys-Trp-Pro-Trp-Trp-Pro-Trp-Arg-Arg-Hse (ILPWKWPWWPWRRX; C-terminal homoserine; MOD_RES (14) Xaa is homoserine (Hse).) [Indol(1-13)-Hse],have antimicrobial activity

# System: fungi such as Cryptococcus
# Assay: antimicrobial activity against fungi
# Type: cell-based
# Conditions: not given
row,Substance,antimicrobial activity against fungi such as Cryptococcus
1,Trp-Pro-Trp-Trp-Pro-Trp-Arg-NH2 (WPWWPWR-NH2) [Indol 6-12],substantial antimicrobial activity
2,Lys-Trp-Pro-Trp-Trp-Pro-Trp-Arg-NH2 (KWPWWPWR-NH2) [Indol 5-12],substantial antimicrobial activity
3,Trp-Lys-Trp-Pro-Trp-Trp-Pro-Trp-Arg-NH2 (WKWPWWPWR-NH2) [Indol 4-12],substantial antimicrobial activity
4,Pro-Trp-Lys-Trp-Pro-Trp-Trp-Pro-Trp-Arg-NH2 (PWKWPWWPWR-NH2) [Indol 3-12],substantial antimicrobial activity
